We go through 1 substance from US8022036B2, “Use of thymosin alpha 1 for the treatment of immunological diseases” (Sigma-Tau Industrie Farmaceutiche Riunite S.p.A., priority 2006, dated 2011).

Test [1] has as its system lung homogenates, TLN CD4+ T cells. Nature of the test: Inflammatory/Th/T reg responses in lung and TLN of infected HSCT mice given DCs (ELISA, ELISPOT, RT-PCR, flow cytometry). Format: in vivo, mouse. As for the experimental part:
Mice received twice intraperitoneal injections of DCs, at weekly interval, starting a day after HSCT and infected a week after the last DC administration. Three days later, lung homogenates, CD4+ T cells (>98% on FACS analysis), CD4+CD25− (>98%) or CD4+CD25+ (>82%) purified with the specific Miltenyi Biotec isolation kits were assessed for pattern of pro- and anti-inflammatory (TNF-a/IL-10 in lung homogenates), Th1 (IFN-γ) or Th2 (IL-4) cytokine production by CD4+ cells stimulated with Aspergillus-pulsed DCs (Blood. 2003; 102:3807-3814) frequency of CD25+ IL-10^+ TGF-β+ T reg cells, lymphoproliferation and gene expression by RT-PCR. For proliferation, TLN CD4+ T lymphocytes were plated (10^5 cells/well) with 10^5 cells/well irradiated allogeneic splenocytes or autologous spDCs pulsed with conidia or 10 μg/mL Con A for five days before H^3-thymidine labeling.
RNA extraction, synthesis and PCR of cDNA, sequences of gene-specific primers, annealing temperatures and amplification cycles were done as described in J. Immunol. 2006; 176:1712-1723). Amplification efficiencies were validated and normalized against GAPDH.
(A) TNF-a/IL-10 levels were assessed by specific ELISA in lung homogenates and IFN-γ/IL-4 production were assessed in TLN CD4+ T cells cocultured with Aspergillus-pulsed DCs. Bars indicate standard errors. TLN CD4+CD25+ T cells producing IL-10 or TGF-β were numbered by ELISPOT assay. Results are expressed as the mean number of cytokine-producing cells (±SE) per 2×10^5 cells. *P<0.05, DC-treated versus untreated mice. (**) P<0.05, Thymosin alpha 1-treated DCs versus untreated DCs.
(B) Total RNA was extracted from freshly purified CD4+ T cells from TLN of treated or untreated (None) mice. The expressions of the different mRNAs in each cell population were determined by RT-PCR. The expression of a housekeeping gene, Gapdh mRNA, was used as an internal control. The data shown are representative results of three experiments.
(C) Phenotypic analysis of cells isolated from lung or TLN of mice infused or not (None) with different types of DCs, (−) indicating uninfected, untreated mice. CD4+ T cells were sequentially reacted with PE-conjugated anti-CD25 (PC61) and FITC-conjugated anti-CD69 (clone H1.2F3) mAbs. Numbers represent the percentage of positive cells over total cells analyzed. Control staining of cells with irrelevant Ab was used to obtain background fluorescence values. Histograms are representative of one out of four independent experiments.
On the technique in general: An ELISA detects its analyte on a solid surface through an enzyme-linked reagent.

The nature of test [2]: GVHD in experimental HSCT with donor T cells and DCs. Format: in vivo, mouse. To be noted: 10^5 donor T cells plus Thymosin alpha 1-treated GM-DCs, uninfected mice. As for the experimental part: Human peripheral blood mononuclear cells were obtained from healthy donors and seven recipients of T-cell depleted haploidentical HSCT, upon written informed consent. Donor typing, engraftment and GVHD were assessed as described (Blood. 2005; 106; 4397-4406). Experimental HSCT model Lethally irradiated (8 Gy) C57BL6 mice were infused with T cell-depleted bone marrow cells from BALB/c mice (Blood. 2003; 102:3807-3814). For GVHD, purified donor CD3+ T splenocytes were added to the graft (Science. 2002; 295:2097-2100). Individual mice were graded weekly from 0-2 for each GVHD criterion (see legend to FIG. 3) without knowledge of treatment group.
Mice were either left uninfected for the assessment of GVHD or infected for the assessment of susceptibility to infection. […]
Resistance to infection was assessed in terms of MST (median survival time in days) and fungal growth in the lung ([…] glucosamine content, bars indicating standard errors) 3 days after infection or at the time of death (A). […] The degree of systemic GVHD was assessed by a scoring system that sums changes in five clinical parameters: weight loss, posture (hunching), activity, fur texture, and skin integrity (maximum index=10). […]

The mark [3] stands for this setting: mice given Thymosin alpha 1-treated GM-DCs.

No end group written: not given here.

Regarding “Thymosin alpha 1: naturally occurring thymic peptide; supplied as purified, endotoxin-free sterile lyophilized acetylated polypeptide from SciClone Pharmaceuticals (Ac-SDAAVDTSSEITTKDLKEKKEVVEEAEN; UniProt P06454 2-29, looked up)”, the “compartmentalization of induced T reg (lungs vs TLN), FL-DCs” value in test [1] (Thymosin alpha 1-treated FL-DCs) is recorded as “the opposite was true”. For the same substance, in test [1] (Thymosin alpha 1-treated GM-DCs, compared with TNF-a high, IL-10 low in untreated or GM-DC mice), the “TNF-a/IL-10 production in lung homogenates” value is given as “the reverse being true”. Further, the “compartmentalization of induced T reg (lungs vs TLN), GM-DCs” value in test [1] (Thymosin alpha 1 treated GM-DCs) was “induced T reg in the lungs more than TLN”. In addition, in test [1] (setting [3]), the “CD62L marker on CD25+ T cells” value is “stained positive”, the “Foxp3 mRNA in TLN CD4+ T cells (RT-PCR)” value is on record as “expressed”, the “IFN-γ production by TLN CD4+ T cells” value is “higher” and the “IL-4 production by TLN CD4+ T cells” value is recorded as “lower”. Further, the “CD69 activation marker on CD4+CD25+ T cells” value in test [1] (mice given Thymosin alpha 1-treated GM-DCs or FL-DCs) is given as “did not stain positive”. The “acceleration of GVHD induction by GM-DCs” value in test [2] is recorded as “totally prevented the effect”.
